Measurements: ChEMBL document CHEMBL5053535, “Design, synthesis and biological evaluation of novel aminopyrazole- and 7-azaindole-based Nek1 inhibitors and their effects on zebrafish kidney development” (Bioorg Med Chem Lett, 2021)
≈ marks a conversion by molar mass, not a printed value.

Assays:
[1] = organism: Danio rerio; test: Toxicity in zebra fish embryos assessed as phenotype changes at 0.01 to 2.5 uM measured after 96 hrs; assay type: organism-based; conditions: zebrafish, in vivo, dose 0.01-2.5 µM
[2] = organism: Danio rerio; test: Toxicity in zebra fish embryos assessed as adverse effects at >0.1 uM measured over 96 hrs; assay type: organism-based; conditions: zebrafish, in vivo
[3] = organism: Danio rerio; test: Toxicity in wild type zebra fish model of polycystic kidney disease assessed as increase in fluorescence intensity at 0.1 uM incubated for 48 hrs in presence of N-phenyl thiourea further treated with PT-yellow for 20 mins followed by dye washout and incubated in solution containing compound for 96 hrs by fluorescence imaging analysis; assay type: organism-based; conditions: zebrafish, in vivo
[4] = organism: Danio rerio; test: Toxicity in zebra fish embryos assessed as enlarged yolk sac at 0.1 uM measured after 96 hrs; assay type: organism-based; conditions: zebrafish, in vivo
[5] = organism: Danio rerio; test: Toxicity in zebra fish embryos assessed as curved tail at 0.1 uM measured after 96 hrs; assay type: organism-based; conditions: zebrafish, in vivo
[6] = Toxicity in zebra fish embryos assessed as lethality at 1.5 uM measured after 24 hrs relative to control; assay type: organism-based, Danio rerio; conditions: zebrafish, in vivo, read-out: Activity
[7] = Permeability across apical to basolateral side in human Caco-2 cells at pH 6.5 assessed as compound recovery at 1 uM; assay type: ADME, cell-based; conditions: Caco-2, pH 6.5, read-out: Drug recovery
[8] = Permeability across basolateral to apical side in human Caco-2 cells at pH 7.4 assessed as compound recovery at 1 uM; assay type: ADME, cell-based; conditions: Caco-2, pH 7.4, read-out: Drug recovery
[9] = Permeability across basolateral to apical side in human Caco-2 cells at pH 7.4 at 1 uM; assay type: ADME, cell-based; conditions: Caco-2, pH 7.4, read-out: permeability
[10] = biological target: T1, Serine/threonine-protein kinase Chk1 (Homo sapiens) (UniProt O14757); test: Inhibition of human recombinant full length N-terminal His tagged CHK1 expressed in baculovirus infected Sf21 insect cells using CHKtide as substrate assessed as residual activity at 1 uM pretreated for 20 mins followed by [33P]-ATP addition measured after 120 mins by radiometric hotspot kinase assay relative to control; conditions: time 140.0 min
T1 sequence (whole entry): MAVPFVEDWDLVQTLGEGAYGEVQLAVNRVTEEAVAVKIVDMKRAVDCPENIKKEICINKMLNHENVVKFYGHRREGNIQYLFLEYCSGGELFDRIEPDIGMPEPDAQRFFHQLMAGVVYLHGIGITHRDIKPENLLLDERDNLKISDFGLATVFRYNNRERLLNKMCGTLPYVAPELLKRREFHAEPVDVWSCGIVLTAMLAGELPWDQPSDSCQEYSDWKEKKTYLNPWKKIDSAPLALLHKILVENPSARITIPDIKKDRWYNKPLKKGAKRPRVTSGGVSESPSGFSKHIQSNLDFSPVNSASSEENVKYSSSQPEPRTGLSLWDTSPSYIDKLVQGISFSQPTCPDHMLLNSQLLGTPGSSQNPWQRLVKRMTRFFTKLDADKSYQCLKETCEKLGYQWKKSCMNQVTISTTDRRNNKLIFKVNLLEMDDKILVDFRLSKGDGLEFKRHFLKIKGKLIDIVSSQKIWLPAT

[11] = biological target: Cyclin-dependent kinase 2/cyclin E1 (Homo sapiens) (UniProt P24864+P24941); test: Inhibition of human recombinant full length C-terminal His6 tagged CDK2/ N-terminal GST-tagged Cyclin E expressed in baculovirus infected Sf21 insect cells using histone H1 as substrate assessed as residual activity at 1 uM pretreated for 20 mins followed by [33P]-ATP addition measured after 120 mins by radiometric hotspot kinase assay relative to control; conditions: time 140.0 min
[12] = Permeability across apical to basolateral side in human Caco-2 cells at pH 6.5 at 1 uM; assay type: ADME, cell-based; conditions: Caco-2, pH 6.5, read-out: permeability
[13] = Stability of the compound in DMEM measured after 48 hrs by DAD-HPLC method; assay type: physicochemical; conditions: read-out: Stability
[14] = Solubility of the compound in E3 medium with 0.2% DMSO by DAD-HPLC based shake flask method; assay type: physicochemical
[15] = Solubility of the compound in DMEM with 1% DMSO by DAD-HPLC based shake flask method; assay type: physicochemical
[16] = biological target: T2, Serine/threonine-protein kinase Nek5 (Homo sapiens) (UniProt Q6P3R8); test: Inhibition of human recombinant NEK5 assessed as residual activity at 1 uM pretreated for 20 mins followed by [33P]-ATP addition measured after 120 mins by radiometric hotspot kinase assay relative to control; conditions: time 140.0 min
T2 sequence (whole entry): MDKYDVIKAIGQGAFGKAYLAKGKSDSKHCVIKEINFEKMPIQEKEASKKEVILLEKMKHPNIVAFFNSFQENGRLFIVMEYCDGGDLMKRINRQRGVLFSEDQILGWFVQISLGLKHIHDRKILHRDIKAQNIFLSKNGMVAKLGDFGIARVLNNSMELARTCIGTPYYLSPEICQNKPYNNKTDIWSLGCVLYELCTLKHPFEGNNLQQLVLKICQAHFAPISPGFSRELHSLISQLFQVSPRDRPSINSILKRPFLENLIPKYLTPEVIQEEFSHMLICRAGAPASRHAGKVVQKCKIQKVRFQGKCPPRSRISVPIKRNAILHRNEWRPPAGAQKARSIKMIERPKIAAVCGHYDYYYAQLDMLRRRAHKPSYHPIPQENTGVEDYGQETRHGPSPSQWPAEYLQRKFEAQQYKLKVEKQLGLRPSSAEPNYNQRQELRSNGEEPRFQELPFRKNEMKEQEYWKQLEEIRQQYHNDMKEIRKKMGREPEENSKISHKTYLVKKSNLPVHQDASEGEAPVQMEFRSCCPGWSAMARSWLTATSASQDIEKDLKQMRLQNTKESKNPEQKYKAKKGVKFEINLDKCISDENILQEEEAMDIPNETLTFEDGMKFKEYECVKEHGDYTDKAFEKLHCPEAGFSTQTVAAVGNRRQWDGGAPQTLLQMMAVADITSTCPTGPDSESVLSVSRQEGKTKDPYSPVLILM

[17] = biological target: T3, Serine/threonine-protein kinase Nek1 (Homo sapiens) (UniProt Q96PY6); test: Inhibition of human NEK1 using myelin basic protein as substrate assessed as residual activity at 1 uM in presence of [gamma-33P]-ATP by radiometric hotspot kinase assay relative to control
T3 sequence (whole entry): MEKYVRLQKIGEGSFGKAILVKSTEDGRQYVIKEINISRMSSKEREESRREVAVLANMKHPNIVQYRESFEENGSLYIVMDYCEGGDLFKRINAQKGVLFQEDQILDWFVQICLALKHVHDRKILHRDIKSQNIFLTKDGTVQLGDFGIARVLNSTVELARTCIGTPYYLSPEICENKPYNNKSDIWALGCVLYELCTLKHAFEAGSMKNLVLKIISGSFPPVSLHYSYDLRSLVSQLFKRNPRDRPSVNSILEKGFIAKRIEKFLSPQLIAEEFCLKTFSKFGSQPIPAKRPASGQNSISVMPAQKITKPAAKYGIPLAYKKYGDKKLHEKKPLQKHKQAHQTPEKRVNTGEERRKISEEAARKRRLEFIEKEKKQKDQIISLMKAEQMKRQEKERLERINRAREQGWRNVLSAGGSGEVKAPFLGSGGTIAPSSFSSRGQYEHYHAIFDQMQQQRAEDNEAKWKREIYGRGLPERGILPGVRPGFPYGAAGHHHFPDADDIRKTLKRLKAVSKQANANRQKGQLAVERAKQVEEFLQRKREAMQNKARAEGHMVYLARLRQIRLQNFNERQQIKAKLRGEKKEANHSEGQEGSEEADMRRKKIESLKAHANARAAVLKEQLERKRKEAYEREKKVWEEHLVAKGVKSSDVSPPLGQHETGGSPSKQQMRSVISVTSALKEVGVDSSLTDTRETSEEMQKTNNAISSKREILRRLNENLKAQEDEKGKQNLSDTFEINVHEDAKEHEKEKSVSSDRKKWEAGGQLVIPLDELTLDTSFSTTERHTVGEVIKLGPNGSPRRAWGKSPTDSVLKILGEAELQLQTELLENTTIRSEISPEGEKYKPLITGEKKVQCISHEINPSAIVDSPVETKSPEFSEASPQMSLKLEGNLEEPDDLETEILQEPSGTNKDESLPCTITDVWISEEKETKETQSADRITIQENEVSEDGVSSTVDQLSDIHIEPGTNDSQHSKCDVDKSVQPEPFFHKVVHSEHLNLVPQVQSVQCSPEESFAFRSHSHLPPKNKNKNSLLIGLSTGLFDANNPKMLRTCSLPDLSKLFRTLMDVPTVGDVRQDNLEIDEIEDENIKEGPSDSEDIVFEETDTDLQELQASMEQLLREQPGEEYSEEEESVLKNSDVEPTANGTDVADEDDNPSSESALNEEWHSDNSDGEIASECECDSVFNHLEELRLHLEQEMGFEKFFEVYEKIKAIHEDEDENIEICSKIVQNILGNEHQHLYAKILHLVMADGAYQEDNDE

[18] = biological target: Vascular endothelial growth factor receptor 2 (Homo sapiens) (UniProt P35968); test: Inhibition of human recombinant C-terminal His6 tagged VEGFR2 (789 to 1356 residues) expressed in baculovirus infected insect cells assessed as residual activity at 1 uM pretreated for 20 mins followed by [33P]-ATP addition measured after 120 mins by radiometric hotspot kinase assay relative to control; conditions: time 140.0 min
Sequence of Vascular endothelial growth factor receptor 2 (Homo sapiens) (P35968 whole entry, the tested form may be a part): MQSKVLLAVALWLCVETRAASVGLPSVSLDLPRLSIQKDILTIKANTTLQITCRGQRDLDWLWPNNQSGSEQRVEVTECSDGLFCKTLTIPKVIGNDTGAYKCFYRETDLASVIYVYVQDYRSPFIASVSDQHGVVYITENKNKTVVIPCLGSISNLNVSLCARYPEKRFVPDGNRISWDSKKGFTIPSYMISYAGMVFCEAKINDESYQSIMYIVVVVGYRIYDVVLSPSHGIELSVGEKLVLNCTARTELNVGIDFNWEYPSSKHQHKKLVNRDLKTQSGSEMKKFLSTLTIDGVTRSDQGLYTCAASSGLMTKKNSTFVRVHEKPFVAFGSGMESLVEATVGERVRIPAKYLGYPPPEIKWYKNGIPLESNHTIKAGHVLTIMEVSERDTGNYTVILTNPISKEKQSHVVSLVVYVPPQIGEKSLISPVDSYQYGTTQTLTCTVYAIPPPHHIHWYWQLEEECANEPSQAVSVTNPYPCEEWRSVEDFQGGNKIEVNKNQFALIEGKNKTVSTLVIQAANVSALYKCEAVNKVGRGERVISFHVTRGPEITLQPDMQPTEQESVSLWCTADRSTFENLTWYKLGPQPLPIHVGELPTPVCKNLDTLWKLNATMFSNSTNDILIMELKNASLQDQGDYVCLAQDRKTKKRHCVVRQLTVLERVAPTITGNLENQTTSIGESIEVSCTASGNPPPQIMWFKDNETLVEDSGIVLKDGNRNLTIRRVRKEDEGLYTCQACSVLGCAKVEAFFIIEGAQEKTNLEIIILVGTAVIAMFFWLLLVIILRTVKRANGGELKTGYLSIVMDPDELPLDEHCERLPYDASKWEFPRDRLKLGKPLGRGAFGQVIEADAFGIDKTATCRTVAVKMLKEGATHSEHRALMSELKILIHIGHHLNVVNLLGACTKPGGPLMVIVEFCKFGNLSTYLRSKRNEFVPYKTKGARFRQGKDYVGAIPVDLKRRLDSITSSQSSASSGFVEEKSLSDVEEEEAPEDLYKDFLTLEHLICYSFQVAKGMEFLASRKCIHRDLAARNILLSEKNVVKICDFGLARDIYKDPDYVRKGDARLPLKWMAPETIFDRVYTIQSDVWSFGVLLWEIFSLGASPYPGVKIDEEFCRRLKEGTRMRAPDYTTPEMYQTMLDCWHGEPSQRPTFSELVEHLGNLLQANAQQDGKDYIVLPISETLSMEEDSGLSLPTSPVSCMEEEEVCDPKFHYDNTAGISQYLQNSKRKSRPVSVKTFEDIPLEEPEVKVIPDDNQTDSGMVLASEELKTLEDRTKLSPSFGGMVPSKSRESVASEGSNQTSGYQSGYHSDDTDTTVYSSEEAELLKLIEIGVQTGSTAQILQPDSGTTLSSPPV

[19] = biological target: T4, Serine/threonine-protein kinase Nek1 (Homo sapiens, UniProt Q96PY6); test: Inhibition of human NEK1 using myelin basic protein as substrate assessed as residual activity in presence of [gamma-33P]-ATP by radiometric hotspot kinase assay relative to control
T4 sequence (Q96PY6 whole entry): T3 sequence (whole entry)

[20] = biological target: Wee1-like protein kinase (Homo sapiens) (UniProt P30291); test: Inhibition of human recombinant full length WEE1 expressed in insect cells using MBP as substrate assessed as residual activity at 1 uM pretreated for 20 mins followed by [33P]-ATP addition measured after 120 mins by radiometric hotspot kinase assay relative to control; conditions: time 140.0 min
Sequence of Wee1-like protein kinase (Homo sapiens) (P30291 whole entry, looked up): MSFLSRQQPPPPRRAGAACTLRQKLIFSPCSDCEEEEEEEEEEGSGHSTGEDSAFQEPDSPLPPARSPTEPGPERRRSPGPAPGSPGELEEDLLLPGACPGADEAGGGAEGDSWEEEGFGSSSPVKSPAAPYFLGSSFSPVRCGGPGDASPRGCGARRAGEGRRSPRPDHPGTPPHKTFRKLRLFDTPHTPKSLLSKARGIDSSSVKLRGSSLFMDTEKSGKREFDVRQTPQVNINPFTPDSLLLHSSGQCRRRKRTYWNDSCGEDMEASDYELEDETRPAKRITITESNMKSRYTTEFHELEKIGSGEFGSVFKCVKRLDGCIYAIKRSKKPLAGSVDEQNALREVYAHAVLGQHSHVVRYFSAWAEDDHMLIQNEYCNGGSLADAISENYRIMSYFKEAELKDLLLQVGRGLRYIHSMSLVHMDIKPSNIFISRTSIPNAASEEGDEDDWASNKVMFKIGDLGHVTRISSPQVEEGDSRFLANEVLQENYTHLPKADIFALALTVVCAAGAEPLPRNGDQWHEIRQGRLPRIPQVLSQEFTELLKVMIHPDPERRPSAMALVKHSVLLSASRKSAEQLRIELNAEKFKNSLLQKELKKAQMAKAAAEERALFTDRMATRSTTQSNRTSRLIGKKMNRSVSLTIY

[21] = organism: Danio rerio; test: Toxicity in zebra fish embryos assessed as overall survival at 0.01 to 2.5 uM measured after 96 hrs; assay type: organism-based; conditions: zebrafish, in vivo, dose 0.01-2.5 µM
[22] = organism: Danio rerio; test: Toxicity in wild type zebra fish model of polycystic kidney disease assessed as minor tubular volume expansion at 2.5 uM incubated for 48 hrs in presence of N-phenyl thiourea further treated with PT-yellow for 20 mins followed by dye washout and incubated in solution containing compound for 96 hrs by fluorescence imaging analysis; assay type: organism-based; conditions: zebrafish, in vivo
[23] = organism: Danio rerio; test: Toxicity in wild type zebra fish model of polycystic kidney disease assessed as increase in fluorescence intensity at 2.5 uM incubated for 48 hrs in presence of N-phenyl thiourea further treated with PT-yellow for 20 mins followed by dye washout and incubated in solution containing compound for 96 hrs by fluorescence imaging analysis; assay type: organism-based; conditions: zebrafish, in vivo
[24] = organism: Danio rerio; test: Toxicity in zebra fish embryos assessed as reduction in heart beat at 1 uM measured every 24 hrs for 120 hrs; assay type: organism-based; conditions: zebrafish, in vivo

| Compound | Activity [10] | Activity [11] | remaining at 48 h [13] | solubility [14] | solubility [15] | Activity [16] | Activity [17] | Activity [18] | IC50 [19] | Activity [20] | other results |
| --- | --- | --- | --- | --- | --- | --- | --- | --- | --- | --- | --- |
| Cc1nc(N)sc1-c1ccnc(Nc2cccc([N+](=O)[O-])c2)n1 | – | – | – | – | – | – | – | – | – | – | Activity [1]: Non-Toxic; Activity [2]: Toxic; Activity [3]: Toxic; Activity [4]: Toxic; Activity [5]: Toxic; mortality at 24 h, 1.5 µM [6]: 100% |
| COC(=O)c1cccc(-c2cnc3[nH]cc(-c4cncnc4)c3c2)c1 | 73.8% | 22.3% | 72% | 4.6 µM (≈ 1.52 µg/mL) | 28.6 µM (≈ 9.45 µg/mL) | 23.3% | 5.89% | 61.3% | 62.5 nM | 76.2% | recovery at 1 µM [7]: 1.5%; recovery at 1 µM [8]: 41.1%; Papp B→A at 1 µM [9]: 0.21 ×10⁻⁶ cm/s; Papp A→B at 1 µM [12]: 0.37 ×10⁻⁶ cm/s |
| COC(=O)c1cccc(-c2cnc3[nH]cc(-c4ccncc4)c3c2)c1 | 85% | 1.8% | 88% | 30.9 µM (≈ 10.2 µg/mL) | 34 µM (≈ 11.2 µg/mL) | 58.5% | 13% | 79.4% | 140 nM | 78.9% | Activity [21]: Non-Toxic; Activity [22]: Toxic; Activity [23]: Toxic |
| COC(=O)c1cccc(-c2cnc3[nH]cc(-c4cccc(OC)c4)c3c2)c1 | > 100% | 19.3% | 97% | 1 µM (≈ 0.358 µg/mL) | 2 µM (≈ 0.717 µg/mL) | 90% | 12.4% | 94.1% | 166 nM | > 100% | Activity [24]: Non-Toxic |
